# Data published in PubChem BioAssay AID1963979 (Molecular Pharmacology Branch, DTP, NCI, 2024).
# Tested on: 361931-004-R-J1-PDC multicell spheroid viability
# Assay: Anticancer human tumor 361931-004-R-J1-PDC patient-derived colon adenocarcinoma cell line growth inhibition [PI3K]
# Settings: for IC50: curve of first compound; for viability, T/C: stronger effect = lower value
# Procedure, shortened: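 Viability of mixed-cell spheroids was determined after exposure to pairwise combinations, one partner being inavolisib, alpelisib, duvelisib or copanlisib. Highest tested concentration matched clinical Cmax where known and 10 microM where not, descending in half-log steps.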
# [1] = second compound 0.0316 µM, first compound 0.0316 µM
# [2] = second compound 0.0316 µM, first compound 0.1 µM
# [3] = second compound 0.0316 µM, first compound 0.316 µM
# [4] = second compound 0.0316 µM, first compound 1 µM
# [5] = second compound 0.0316 µM, first compound 3.16 µM
# [6] = second compound 0.0316 µM, first compound 10 µM
# [7] = second compound 0.1 µM, first compound 0.0316 µM
# [8] = second compound 0.1 µM, first compound 0.1 µM
# [9] = second compound 0.1 µM, first compound 0.316 µM
# [10] = second compound 0.1 µM, first compound 1 µM
# [11] = second compound 0.1 µM, first compound 3.16 µM
# [12] = second compound 0.1 µM, first compound 10 µM
# [13] = second compound 0.316 µM, first compound 0.0316 µM
# [14] = second compound 0.316 µM, first compound 0.1 µM
# [15] = second compound 0.316 µM, first compound 0.316 µM
# [16] = second compound 0.316 µM, first compound 1 µM
# [17] = second compound 0.316 µM, first compound 3.16 µM
# [18] = second compound 0.316 µM, first compound 10 µM
# [19] = second compound 1 µM, first compound 0.0316 µM
# [20] = second compound 1 µM, first compound 0.1 µM
# [21] = second compound 1 µM, first compound 0.316 µM
# [22] = second compound 1 µM, first compound 1 µM
# [23] = second compound 1 µM, first compound 3.16 µM
# [24] = second compound 1 µM, first compound 10 µM
# [25] = second compound 3.16 µM, first compound 0.0316 µM
# [26] = second compound 3.16 µM, first compound 0.1 µM
# [27] = second compound 3.16 µM, first compound 0.316 µM
# [28] = second compound 3.16 µM, first compound 1 µM
# [29] = second compound 3.16 µM, first compound 3.16 µM
# [30] = second compound 3.16 µM, first compound 10 µM
# [31] = second compound 10 µM, first compound 0.0316 µM
# [32] = second compound 10 µM, first compound 0.1 µM
# [33] = second compound 10 µM, first compound 0.316 µM
# [34] = second compound 10 µM, first compound 1 µM
# [35] = second compound 10 µM, first compound 3.16 µM
# [36] = second compound 10 µM, first compound 10 µM
# 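Further: spheroids exposed to agents for seven days before readout.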
compound,measurement,setting,value
CC1(C)CCC(CN2CCN(c3ccc(C(=O)NS(=O)(=O)c4ccc(NCC5CCOCC5)c([N+](=O)[O-])c4)c(Oc4cnc5[nH]ccc5c4)c3)CC2)=C(c2ccc(Cl)cc2)C1 + CC(Nc1ncnc2nc[nH]c12)c1cc2cccc(Cl)c2c(=O)n1-c1ccccc1,IC50,second compound 0.0316 µM,5.36 µM
same,IC50,second compound 0.1 µM,5.02 µM
same,IC50,second compound 0.316 µM,5.04 µM
same,IC50,second compound 1 µM,5.15 µM
same,IC50,second compound 3.16 µM,5.25 µM
same,IC50,second compound 10 µM,4.96 µM
same,"viability, T/C",[1],105%
same,"viability, T/C",[2],98.3%
same,"viability, T/C",[3],104%
same,"viability, T/C",[4],93.4%
same,"viability, T/C",[5],89.4%
same,"viability, T/C",[6],3.37%
same,"viability, T/C",[7],110%
same,"viability, T/C",[8],95.2%
same,"viability, T/C",[9],97.7%
same,"viability, T/C",[10],102%
same,"viability, T/C",[11],81.2%
same,"viability, T/C",[12],3.38%
same,"viability, T/C",[13],108%
same,"viability, T/C",[14],97.2%
same,"viability, T/C",[15],106%
same,"viability, T/C",[16],106%
same,"viability, T/C",[17],81.7%
same,"viability, T/C",[18],3.3%
same,"viability, T/C",[19],103%
same,"viability, T/C",[20],99.2%
same,"viability, T/C",[21],106%
same,"viability, T/C",[22],102%
same,"viability, T/C",[23],84%
same,"viability, T/C",[24],3.62%
same,"viability, T/C",[25],102%
same,"viability, T/C",[26],109%
same,"viability, T/C",[27],96%
same,"viability, T/C",[28],96.5%
same,"viability, T/C",[29],86.8%
same,"viability, T/C",[30],3.29%
same,"viability, T/C",[31],109%
same,"viability, T/C",[32],99.6%
same,"viability, T/C",[33],107%
same,"viability, T/C",[34],107%
same,"viability, T/C",[35],80.1%
same,"viability, T/C",[36],3.09%
C[C@@H](NC(=O)c1ncnc(N)c1Cl)c1ncc(C(=O)Nc2cc(C(F)(F)F)c(Cl)cn2)s1 + CC(Nc1ncnc2nc[nH]c12)c1cc2cccc(Cl)c2c(=O)n1-c1ccccc1,IC50,second compound 0.0316 µM,> 10 µM
same,IC50,second compound 0.1 µM,> 10 µM
same,IC50,second compound 0.316 µM,> 10 µM
same,IC50,second compound 1 µM,> 10 µM
same,IC50,second compound 3.16 µM,> 10 µM
same,IC50,second compound 10 µM,> 10 µM
same,"viability, T/C",[1],105%
same,"viability, T/C",[2],102%
same,"viability, T/C",[3],99.2%
same,"viability, T/C",[4],94.1%
same,"viability, T/C",[5],104%
same,"viability, T/C",[6],98%
same,"viability, T/C",[7],101%
same,"viability, T/C",[8],101%
same,"viability, T/C",[9],96%
same,"viability, T/C",[10],95.3%
same,"viability, T/C",[11],104%
same,"viability, T/C",[12],94.6%
same,"viability, T/C",[13],105%
same,"viability, T/C",[14],103%
same,"viability, T/C",[15],107%
same,"viability, T/C",[16],104%
same,"viability, T/C",[17],106%
same,"viability, T/C",[18],93.7%
same,"viability, T/C",[19],98.8%
same,"viability, T/C",[20],99.9%
same,"viability, T/C",[21],107%
same,"viability, T/C",[22],103%
same,"viability, T/C",[23],106%
same,"viability, T/C",[24],91.7%
same,"viability, T/C",[25],88.6%
same,"viability, T/C",[26],110%
same,"viability, T/C",[27],107%
same,"viability, T/C",[28],99.5%
same,"viability, T/C",[29],107%
same,"viability, T/C",[30],101%
same,"viability, T/C",[31],101%
same,"viability, T/C",[32],96.7%
same,"viability, T/C",[33],107%
same,"viability, T/C",[34],107%
same,"viability, T/C",[35],104%
same,"viability, T/C",[36],87.7%
Cn1ncnc1[C@H]1c2n[nH]c(=O)c3cc(F)cc(c23)N[C@@H]1c1ccc(F)cc1 + CC(Nc1ncnc2nc[nH]c12)c1cc2cccc(Cl)c2c(=O)n1-c1ccccc1,IC50,second compound 0.0316 µM,> 0.1 µM
same,IC50,second compound 0.1 µM,> 0.1 µM
same,IC50,second compound 0.316 µM,> 0.1 µM
same,IC50,second compound 1 µM,> 0.1 µM
same,IC50,second compound 3.16 µM,> 0.1 µM
same,IC50,second compound 10 µM,> 0.1 µM
same,"viability, T/C","second compound 0.0316 µM, first compound 0.000316 µM",97.9%
same,"viability, T/C","second compound 0.0316 µM, first compound 0.001 µM",106%
same,"viability, T/C","second compound 0.0316 µM, first compound 0.00316 µM",102%
same,"viability, T/C","second compound 0.0316 µM, first compound 0.01 µM",99.1%
same,"viability, T/C",[1],107%
same,"viability, T/C",[2],106%
same,"viability, T/C","second compound 0.1 µM, first compound 0.000316 µM",110%
same,"viability, T/C","second compound 0.1 µM, first compound 0.001 µM",104%
same,"viability, T/C","second compound 0.1 µM, first compound 0.00316 µM",109%
same,"viability, T/C","second compound 0.1 µM, first compound 0.01 µM",103%
same,"viability, T/C",[7],101%
same,"viability, T/C",[8],108%
same,"viability, T/C","second compound 0.316 µM, first compound 0.000316 µM",107%
same,"viability, T/C","second compound 0.316 µM, first compound 0.001 µM",108%
same,"viability, T/C","second compound 0.316 µM, first compound 0.00316 µM",103%
same,"viability, T/C","second compound 0.316 µM, first compound 0.01 µM",97%
same,"viability, T/C",[13],105%
same,"viability, T/C",[14],100%
same,"viability, T/C","second compound 1 µM, first compound 0.000316 µM",99.5%
same,"viability, T/C","second compound 1 µM, first compound 0.001 µM",99%
same,"viability, T/C","second compound 1 µM, first compound 0.00316 µM",102%
same,"viability, T/C","second compound 1 µM, first compound 0.01 µM",95.2%
same,"viability, T/C",[19],97.8%
same,"viability, T/C",[20],95.2%
same,"viability, T/C","second compound 3.16 µM, first compound 0.000316 µM",102%
same,"viability, T/C","second compound 3.16 µM, first compound 0.001 µM",111%
same,"viability, T/C","second compound 3.16 µM, first compound 0.00316 µM",107%
same,"viability, T/C","second compound 3.16 µM, first compound 0.01 µM",101%
same,"viability, T/C",[25],102%
same,"viability, T/C",[26],102%
same,"viability, T/C","second compound 10 µM, first compound 0.000316 µM",102%
same,"viability, T/C","second compound 10 µM, first compound 0.001 µM",113%
same,"viability, T/C","second compound 10 µM, first compound 0.00316 µM",102%
same,"viability, T/C","second compound 10 µM, first compound 0.01 µM",100%
same,"viability, T/C",[31],102%
same,"viability, T/C",[32],98.5%
